Source: article PMC7611167 (Journal of medicinal chemistry, 2019)

Columns and labels:
panel of 59 kinases = test: Kinase panel; type: biochemical
GSK3β = GSK3β (Homo sapiens, UniProt P49841); test: Kinase panel, GSK3β; type: biochemical; settings: at 1μM
[1] = system: influenza A/Puerto Rico/8/34 (H1N1); settings: mouse, in vivo, po, 30 mg/kg
[2] = system: A/Puerto Rico/8/34 (H1N1); type: cell-based, influenza A virus
aldehyde oxidase (AO) = target: T1, aldehyde oxidase (AO) (Homo sapiens, UniProt Q06278); test: Aldehyde oxidase metabolism in human liver cytosol; type: in vitro ADME; settings: 1 μM, 1 mg/mL protein, 37°C, up to 60 minutes, with or without Raloxifene
T1 sequence (Q06278 1-1338): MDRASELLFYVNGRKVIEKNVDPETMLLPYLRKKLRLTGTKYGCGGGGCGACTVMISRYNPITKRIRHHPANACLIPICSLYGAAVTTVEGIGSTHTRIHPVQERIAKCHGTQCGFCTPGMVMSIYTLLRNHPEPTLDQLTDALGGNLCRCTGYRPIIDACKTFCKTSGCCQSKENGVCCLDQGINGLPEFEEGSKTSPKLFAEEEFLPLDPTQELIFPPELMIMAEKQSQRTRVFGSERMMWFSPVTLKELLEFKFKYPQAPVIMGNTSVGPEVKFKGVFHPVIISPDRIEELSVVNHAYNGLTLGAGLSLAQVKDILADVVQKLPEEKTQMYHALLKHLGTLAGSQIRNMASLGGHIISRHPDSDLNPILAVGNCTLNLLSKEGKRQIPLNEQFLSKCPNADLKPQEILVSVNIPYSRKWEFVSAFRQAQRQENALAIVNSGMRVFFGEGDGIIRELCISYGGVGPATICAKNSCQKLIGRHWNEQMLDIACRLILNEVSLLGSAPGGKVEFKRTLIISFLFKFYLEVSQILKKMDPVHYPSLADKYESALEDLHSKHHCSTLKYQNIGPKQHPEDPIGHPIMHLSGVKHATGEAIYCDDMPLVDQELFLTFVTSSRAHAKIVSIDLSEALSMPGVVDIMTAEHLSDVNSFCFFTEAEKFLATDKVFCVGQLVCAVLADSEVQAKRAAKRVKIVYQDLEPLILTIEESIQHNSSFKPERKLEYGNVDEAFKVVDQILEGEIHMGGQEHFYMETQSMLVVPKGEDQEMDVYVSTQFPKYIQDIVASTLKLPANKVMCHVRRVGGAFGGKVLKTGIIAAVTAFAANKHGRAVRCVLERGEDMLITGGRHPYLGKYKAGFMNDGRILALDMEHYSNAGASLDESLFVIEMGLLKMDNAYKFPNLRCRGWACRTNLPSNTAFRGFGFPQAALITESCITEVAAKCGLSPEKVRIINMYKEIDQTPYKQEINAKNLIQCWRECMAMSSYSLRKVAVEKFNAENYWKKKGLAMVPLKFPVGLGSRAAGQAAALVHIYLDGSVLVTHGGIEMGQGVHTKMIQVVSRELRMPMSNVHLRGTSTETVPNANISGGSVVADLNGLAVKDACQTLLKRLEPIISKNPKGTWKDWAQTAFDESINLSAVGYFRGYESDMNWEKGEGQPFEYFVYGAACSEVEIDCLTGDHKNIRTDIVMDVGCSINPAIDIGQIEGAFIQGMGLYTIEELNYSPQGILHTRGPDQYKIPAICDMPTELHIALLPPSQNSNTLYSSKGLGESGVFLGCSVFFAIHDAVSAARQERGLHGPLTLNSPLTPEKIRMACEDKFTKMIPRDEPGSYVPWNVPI

GSK3β, sequence (P49841 whole entry, species assumed): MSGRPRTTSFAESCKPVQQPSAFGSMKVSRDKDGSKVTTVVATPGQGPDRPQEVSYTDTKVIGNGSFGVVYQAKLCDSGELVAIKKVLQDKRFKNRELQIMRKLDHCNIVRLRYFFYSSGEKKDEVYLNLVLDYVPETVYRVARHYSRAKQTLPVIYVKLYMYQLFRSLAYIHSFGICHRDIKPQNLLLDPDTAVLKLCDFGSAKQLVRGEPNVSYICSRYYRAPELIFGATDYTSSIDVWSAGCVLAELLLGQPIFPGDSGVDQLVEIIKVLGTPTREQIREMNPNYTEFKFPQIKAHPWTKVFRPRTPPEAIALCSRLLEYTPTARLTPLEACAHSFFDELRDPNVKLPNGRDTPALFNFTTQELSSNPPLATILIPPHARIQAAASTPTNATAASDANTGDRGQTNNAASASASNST

Q: What does the source list for `O=C(O)[C@H]1C2CCC(CC2)[C@@H]1Nc1nc(-c2c[nH]c3c(F)cc(F)cc23)ncc1F` [Compound 11a, (2S,3S)-3-((2-(5,7-difluoro-1H-indol-3-yl)-5-fluoropyrimidin-4-yl)amino)bicyclo [2.2.2]octane-2-carboxylic acid]?
A: Activity across a panel of 59 kinases (panel of 59 kinases): inactive; GSK3β inhibition (GSK3β): no inhibition; Body weight course [1]: regained weight from day 11

Q: `O=C(O)[C@H]1C2CCC(CC2)[C@@H]1Nc1nc(-c2c[nH]c3c(F)cc(Cl)cc23)ncc1F` [Compound 11b, (2S,3S)-3-((2-(5-chloro-7-fluoro-1H-indol-3-yl)-5-fluoropyrimidin-4-yl)amino)bicyclo-[2.2.2]octane-2-carboxylic acid] was tested. Which “A/Puerto Rico/8/34 SI (selectivity index, CC50/IC50)” value [2] did it give?
A: The value was >485.

Q: How did the “A/Puerto Rico/8/34 SI (selectivity index, CC50/IC50)” value [2] turn out when `N#Cc1cc(F)c2[nH]cc(-c3ncc(F)c(N[C@H]4C5CCC(CC5)[C@@H]4C(=O)O)n3)c2c1` [Compound 11d, (2S,3S)-3-((2-(5-cyano-7-fluoro-1H-indol-3-yl)-5-fluoropyrimidin-4-yl)amino) bicyclo[2.2.2]octane-2-carboxylic acid] was run?
A: The value was >612.

Q: With `CCOC(=O)C1=C[C@@H](OC(CC)CC)[C@H](NC(C)=O)[C@@H](N)C1` [Oseltamivir, reference compound] as the molecule, how does the “A/Puerto Rico/8/34 SI (selectivity index, CC50/IC50)” value [2] read?
A: Its value is >4132.

Q: Which “Aldehyde oxidase (AO) metabolism in human liver cytosol” value (aldehyde oxidase (AO)) does the source give for `c1ccc2cnncc2c1` [phthalazine] here?
A: The value was “AO metabolism in the normal range”.
